According to PMC4858680, “A platinum-based hybrid drug design approach to circumvent acquired resistance to molecular targeted tyrosine kinase inhibitors” (Scientific Reports, 2016):

How the values were obtained:
ABCG2 = target: T1, ABCG2 (Homo sapiens, UniProt Q9UNQ0); test: Bidirectional drug transport assay; format: in vitro ADME; conditions: dog, pH 7.4, MDCKII–ABCG2, mean of three experiments
T1 construct: expressed in transfected cells; host or cells: MDCKII-ABCG2

[1] = target: ABL1(H396P)-phosphorylated (Homo sapiens, UniProt P00519, H396P); test: biochemical; conditions: read-out: Percent control
[2] = target: T2, ABL1(T315I)-nonphosphorylated (Homo sapiens, UniProt P00519, T315I); test: biochemical; conditions: read-out: Percent control
[3] = target: ABL1(T315I)-phosphorylated (Homo sapiens, UniProt P00519, T315I); test: biochemical; conditions: read-out: Percent control
ABL1-phosphorylated = ABL1-phosphorylated (Homo sapiens, UniProt P00519); test: biochemical; conditions: read-out: Percent control
K562 Ima1.0 = test: Anticancer activity in imatinib-selected resistant K562 subline; format: cell-based; conditions: read-out: Anticancer activity (IC50) K562 Imatinib selected (K562 Ima1.0); Bcr-Abl amplification
EGFR(L858R) = EGFR(L858R) (Homo sapiens, UniProt P00533, L858R); conditions: 10 μM
ABL2 = ABL2 (Homo sapiens, UniProt P42684); test: biochemical; conditions: read-out: Percent control
AXL = target: T3, AXL (Homo sapiens, UniProt P30530); test: biochemical; conditions: read-out: Percent control
T3 sequence (P30530 26-894): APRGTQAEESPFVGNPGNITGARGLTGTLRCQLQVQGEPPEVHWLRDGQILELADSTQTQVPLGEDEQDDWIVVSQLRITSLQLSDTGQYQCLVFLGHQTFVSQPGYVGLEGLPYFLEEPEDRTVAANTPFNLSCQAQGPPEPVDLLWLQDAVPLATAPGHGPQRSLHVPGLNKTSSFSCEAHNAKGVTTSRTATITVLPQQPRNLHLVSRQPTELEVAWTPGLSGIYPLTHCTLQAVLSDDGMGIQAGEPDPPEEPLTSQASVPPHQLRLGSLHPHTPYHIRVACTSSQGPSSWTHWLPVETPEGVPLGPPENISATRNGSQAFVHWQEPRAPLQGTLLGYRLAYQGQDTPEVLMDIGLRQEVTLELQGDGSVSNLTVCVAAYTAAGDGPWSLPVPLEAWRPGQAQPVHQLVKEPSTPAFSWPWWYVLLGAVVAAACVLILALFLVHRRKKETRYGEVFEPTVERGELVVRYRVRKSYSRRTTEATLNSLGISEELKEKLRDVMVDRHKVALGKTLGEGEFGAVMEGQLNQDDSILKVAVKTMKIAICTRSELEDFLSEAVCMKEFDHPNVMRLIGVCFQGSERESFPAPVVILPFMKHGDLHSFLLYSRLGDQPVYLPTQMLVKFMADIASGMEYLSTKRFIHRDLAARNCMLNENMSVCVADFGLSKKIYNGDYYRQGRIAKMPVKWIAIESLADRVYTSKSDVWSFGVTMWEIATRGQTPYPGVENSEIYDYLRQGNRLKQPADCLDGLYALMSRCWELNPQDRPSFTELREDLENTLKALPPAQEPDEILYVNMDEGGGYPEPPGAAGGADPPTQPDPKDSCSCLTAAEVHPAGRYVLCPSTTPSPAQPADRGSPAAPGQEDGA

FLT3(D835Y) = target: T4, FLT3(D835Y) (Homo sapiens, UniProt P36888, D835Y); test: biochemical; conditions: read-out: Percent control
T4 sequence (P36888 27-993 D835Y): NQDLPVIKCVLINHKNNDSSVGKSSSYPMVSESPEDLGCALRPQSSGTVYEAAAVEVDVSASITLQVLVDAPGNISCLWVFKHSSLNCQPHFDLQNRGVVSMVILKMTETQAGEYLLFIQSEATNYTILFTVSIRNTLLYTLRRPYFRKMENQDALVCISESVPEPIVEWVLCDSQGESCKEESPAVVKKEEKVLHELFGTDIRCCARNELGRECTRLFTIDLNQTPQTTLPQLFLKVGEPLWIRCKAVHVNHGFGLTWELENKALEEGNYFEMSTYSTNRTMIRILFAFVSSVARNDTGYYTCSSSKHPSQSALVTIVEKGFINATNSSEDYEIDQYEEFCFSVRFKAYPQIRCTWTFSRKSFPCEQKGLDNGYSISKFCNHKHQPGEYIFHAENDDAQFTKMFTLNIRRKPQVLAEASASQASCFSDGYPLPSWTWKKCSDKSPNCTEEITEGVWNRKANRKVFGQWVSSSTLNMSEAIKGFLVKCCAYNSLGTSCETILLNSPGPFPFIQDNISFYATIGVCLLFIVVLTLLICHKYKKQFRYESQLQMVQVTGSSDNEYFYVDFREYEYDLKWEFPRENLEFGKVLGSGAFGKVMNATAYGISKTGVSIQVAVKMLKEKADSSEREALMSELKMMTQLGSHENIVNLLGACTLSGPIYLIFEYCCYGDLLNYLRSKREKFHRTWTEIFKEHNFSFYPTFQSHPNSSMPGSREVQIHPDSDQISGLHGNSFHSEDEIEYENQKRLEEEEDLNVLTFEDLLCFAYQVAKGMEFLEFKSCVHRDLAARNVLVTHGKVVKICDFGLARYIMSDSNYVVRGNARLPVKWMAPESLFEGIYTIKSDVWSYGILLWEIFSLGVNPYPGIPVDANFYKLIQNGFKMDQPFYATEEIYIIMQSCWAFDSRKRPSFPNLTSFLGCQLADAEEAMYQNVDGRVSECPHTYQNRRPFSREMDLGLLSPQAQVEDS

ABCG2 (MDCKII–ABCG2) = target: T5, ABCG2 (MDCKII–ABCG2) (Homo sapiens, UniProt Q9UNQ0); test: Bidirectional drug transport assay; format: in vitro ADME; conditions: 10 μM, mean of three experiments
T5 construct: expressed in transfected cells; host or cells: MDCKII-ABCG2

[4] = target: ABL1(E317I)-nonphosphorylated (Homo sapiens, UniProt P00519, F317I); conditions: 10 μM
[5] = target: T2, ABL1(T315I)-nonphosphorylated; conditions: 10 μM
CSF1R = CSF1R (Homo sapiens, UniProt P07333); conditions: 10 μM
EGFR(L861Q) = EGFR(L861Q) (Homo sapiens, UniProt P00533, L861Q); test: biochemical; conditions: read-out: Percent control
Chain of EGFR(L861Q) (P00533 25-1210 L861Q): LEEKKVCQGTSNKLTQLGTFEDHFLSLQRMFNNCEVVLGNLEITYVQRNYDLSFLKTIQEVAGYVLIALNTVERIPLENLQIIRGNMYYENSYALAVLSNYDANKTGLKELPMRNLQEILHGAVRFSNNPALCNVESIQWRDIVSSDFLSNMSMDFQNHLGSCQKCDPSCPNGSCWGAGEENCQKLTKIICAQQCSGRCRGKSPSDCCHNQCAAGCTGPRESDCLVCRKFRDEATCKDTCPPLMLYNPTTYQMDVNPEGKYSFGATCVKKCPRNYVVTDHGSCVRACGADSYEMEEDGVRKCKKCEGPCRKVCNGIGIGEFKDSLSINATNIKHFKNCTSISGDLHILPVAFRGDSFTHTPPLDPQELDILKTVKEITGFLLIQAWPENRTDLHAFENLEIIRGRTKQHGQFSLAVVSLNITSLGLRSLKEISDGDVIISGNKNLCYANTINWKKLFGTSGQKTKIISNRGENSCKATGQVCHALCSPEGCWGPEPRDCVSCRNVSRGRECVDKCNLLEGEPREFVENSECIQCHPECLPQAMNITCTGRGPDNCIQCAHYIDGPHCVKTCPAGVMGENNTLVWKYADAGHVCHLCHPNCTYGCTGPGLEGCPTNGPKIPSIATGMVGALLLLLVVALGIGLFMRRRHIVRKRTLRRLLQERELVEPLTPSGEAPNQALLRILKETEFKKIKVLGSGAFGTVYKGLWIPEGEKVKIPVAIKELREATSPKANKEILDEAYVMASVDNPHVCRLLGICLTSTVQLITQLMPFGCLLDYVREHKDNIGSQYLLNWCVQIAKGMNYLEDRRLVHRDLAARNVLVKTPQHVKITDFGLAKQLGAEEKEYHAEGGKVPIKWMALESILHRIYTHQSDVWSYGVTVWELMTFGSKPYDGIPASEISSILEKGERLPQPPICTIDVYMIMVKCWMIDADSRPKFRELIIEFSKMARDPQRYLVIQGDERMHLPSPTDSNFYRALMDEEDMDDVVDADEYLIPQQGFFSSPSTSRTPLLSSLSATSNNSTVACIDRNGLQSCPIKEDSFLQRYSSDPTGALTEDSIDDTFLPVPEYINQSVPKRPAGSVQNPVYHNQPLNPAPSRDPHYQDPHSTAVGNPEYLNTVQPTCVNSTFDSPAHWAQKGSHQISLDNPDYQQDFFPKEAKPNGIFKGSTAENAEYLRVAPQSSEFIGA

T1 sequence (Q9UNQ0 whole entry, species assumed): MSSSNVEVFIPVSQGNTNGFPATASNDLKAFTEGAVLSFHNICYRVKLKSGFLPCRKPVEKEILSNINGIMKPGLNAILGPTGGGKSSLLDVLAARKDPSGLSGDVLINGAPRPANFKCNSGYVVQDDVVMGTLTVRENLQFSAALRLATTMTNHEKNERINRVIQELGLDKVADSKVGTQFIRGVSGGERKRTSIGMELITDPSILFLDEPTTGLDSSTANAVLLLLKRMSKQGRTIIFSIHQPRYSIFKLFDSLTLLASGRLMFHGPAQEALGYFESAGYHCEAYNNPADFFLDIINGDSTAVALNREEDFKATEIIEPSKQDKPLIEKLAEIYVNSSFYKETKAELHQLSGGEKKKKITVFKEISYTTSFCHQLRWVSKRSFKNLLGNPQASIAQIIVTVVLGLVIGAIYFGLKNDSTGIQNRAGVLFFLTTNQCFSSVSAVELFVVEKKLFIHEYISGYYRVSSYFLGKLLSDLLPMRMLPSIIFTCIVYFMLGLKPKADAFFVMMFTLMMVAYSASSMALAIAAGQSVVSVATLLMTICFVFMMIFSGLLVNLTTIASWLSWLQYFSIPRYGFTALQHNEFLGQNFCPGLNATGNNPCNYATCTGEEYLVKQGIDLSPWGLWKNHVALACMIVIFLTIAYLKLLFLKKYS
T5 sequence (Q9UNQ0 whole entry, species assumed): as above
Chain of ABL2 (P42684 whole entry): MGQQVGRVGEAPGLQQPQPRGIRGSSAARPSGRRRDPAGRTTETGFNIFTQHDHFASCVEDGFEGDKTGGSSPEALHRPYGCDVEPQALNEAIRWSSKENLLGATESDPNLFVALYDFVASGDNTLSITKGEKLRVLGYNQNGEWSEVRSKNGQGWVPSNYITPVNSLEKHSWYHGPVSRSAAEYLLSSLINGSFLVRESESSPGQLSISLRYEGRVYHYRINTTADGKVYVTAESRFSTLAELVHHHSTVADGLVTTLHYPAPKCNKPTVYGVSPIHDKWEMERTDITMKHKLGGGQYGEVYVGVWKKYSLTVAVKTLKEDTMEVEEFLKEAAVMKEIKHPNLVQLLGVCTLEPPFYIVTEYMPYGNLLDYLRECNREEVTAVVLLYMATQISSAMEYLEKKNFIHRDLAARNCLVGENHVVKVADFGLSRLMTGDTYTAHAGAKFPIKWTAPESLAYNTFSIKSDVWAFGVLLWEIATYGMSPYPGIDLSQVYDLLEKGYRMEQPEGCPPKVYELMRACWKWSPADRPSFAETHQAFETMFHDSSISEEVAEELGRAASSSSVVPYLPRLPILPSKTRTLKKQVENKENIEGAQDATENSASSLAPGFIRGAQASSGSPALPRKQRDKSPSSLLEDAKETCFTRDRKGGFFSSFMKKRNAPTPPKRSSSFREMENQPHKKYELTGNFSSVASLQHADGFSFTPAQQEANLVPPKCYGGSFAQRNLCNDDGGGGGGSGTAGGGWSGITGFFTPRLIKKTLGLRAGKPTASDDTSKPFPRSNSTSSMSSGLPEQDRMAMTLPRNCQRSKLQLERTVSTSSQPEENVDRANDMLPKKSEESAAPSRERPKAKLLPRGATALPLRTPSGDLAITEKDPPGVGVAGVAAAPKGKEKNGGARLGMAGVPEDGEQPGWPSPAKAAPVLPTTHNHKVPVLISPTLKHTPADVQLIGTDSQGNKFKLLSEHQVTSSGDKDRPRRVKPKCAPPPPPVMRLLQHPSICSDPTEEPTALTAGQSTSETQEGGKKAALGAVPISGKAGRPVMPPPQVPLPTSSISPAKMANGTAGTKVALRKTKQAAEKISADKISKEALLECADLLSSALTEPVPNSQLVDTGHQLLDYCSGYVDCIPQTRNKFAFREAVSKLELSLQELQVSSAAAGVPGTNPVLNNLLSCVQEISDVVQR
Chain of CSF1R (P07333 20-972): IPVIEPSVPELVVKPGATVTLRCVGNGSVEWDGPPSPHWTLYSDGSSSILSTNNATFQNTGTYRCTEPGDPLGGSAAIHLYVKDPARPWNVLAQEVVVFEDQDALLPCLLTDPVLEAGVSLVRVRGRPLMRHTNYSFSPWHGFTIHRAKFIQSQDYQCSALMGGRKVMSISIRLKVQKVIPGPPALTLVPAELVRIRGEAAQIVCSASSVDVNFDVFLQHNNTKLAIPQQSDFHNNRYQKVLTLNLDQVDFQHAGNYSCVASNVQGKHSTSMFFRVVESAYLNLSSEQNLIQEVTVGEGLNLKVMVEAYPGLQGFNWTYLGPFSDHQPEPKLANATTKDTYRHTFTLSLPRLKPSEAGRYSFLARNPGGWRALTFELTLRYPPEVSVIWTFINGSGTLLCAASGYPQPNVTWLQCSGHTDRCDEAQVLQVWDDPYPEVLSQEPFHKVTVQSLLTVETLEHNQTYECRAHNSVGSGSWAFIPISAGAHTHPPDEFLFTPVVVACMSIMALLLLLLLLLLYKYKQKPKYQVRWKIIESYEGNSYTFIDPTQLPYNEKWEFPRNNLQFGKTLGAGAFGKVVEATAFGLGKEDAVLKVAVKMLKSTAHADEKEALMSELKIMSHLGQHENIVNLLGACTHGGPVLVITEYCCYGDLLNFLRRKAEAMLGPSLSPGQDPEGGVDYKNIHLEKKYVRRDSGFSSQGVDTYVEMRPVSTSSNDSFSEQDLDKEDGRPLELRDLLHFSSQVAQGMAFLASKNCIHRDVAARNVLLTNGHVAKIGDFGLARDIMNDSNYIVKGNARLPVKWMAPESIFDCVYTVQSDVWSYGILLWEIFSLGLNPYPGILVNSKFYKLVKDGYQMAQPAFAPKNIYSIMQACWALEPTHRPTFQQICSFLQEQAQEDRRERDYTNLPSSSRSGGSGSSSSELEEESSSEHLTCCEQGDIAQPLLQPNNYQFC

In the case of `C#Cc1cccc(Nc2ncnc3cc(OCCOC)c(OCCOC)cc23)c1` [Erlotinib], the Papp A→B at 120 min, 10 μM (ABCG2; read-out: A to B transport (apparent permeability)) is reported as 14.9 ×10⁻⁶ cm/s, the Papp B→A at 120 min, 10 μM (ABCG2; read-out: B to A transport (apparent permeability)) is reported as 45.4 ×10⁻⁶ cm/s and the remaining activity at 10 µM [1] is reported as 0.6%. It also gave a remaining activity at 10 µM [2] of 5.8%, a remaining activity at 10 µM [3] of 0.6% and a remaining activity at 10 µM (ABL1-phosphorylated) of 0.8%.
`Cc1ccc(NC(=O)c2ccc(CN3CCN(C)CC3)cc2)cc1Nc1nccc(-c2cccnc2)[n+]1[Pt-2]1([Cl])[NH2+]C2CCCCC2[NH2+]1` (centres unmarked) [1b, oxaliplatin-imatinib] showed an IC50 (K562 Ima1.0) of 2920 ± 930 nM and a Percent control (EGFR(L858R)) of 81%.
For `COc1cc2c(Nc3ccc(Br)cc3F)ncnc2cc1OCC1CCN(C)CC1` [Vandetanib, reference compound], the remaining activity at 10 µM (ABL2) was 0.7%, the remaining activity at 10 µM (AXL) was 2.4% and the remaining activity at 10 µM (FLT3(D835Y)) was 7.7%.
`C#Cc1cccc(Nc2c3cc(OCCOC)c(OCCOC)cc3nc[n+]2[Pt@SP2-2]([NH3+])([NH3+])[Cl])c1` [2a, cisplatin-erlotinib] was tested, and the “A to B transport (apparent permeability)” value (ABCG2 (MDCKII–ABCG2)) was 7.21 × 10^−6, the “B to A transport (apparent permeability)” value (ABCG2 (MDCKII–ABCG2)) was 7.88 × 10^−6 and the Percent control [4] was 83%. For the same compound, the Percent control [5] was 41% and the Percent control (CSF1R) was 91%.
Work on `Cc1ccc(NC(=O)c2ccc(CN3CCN(C)CC3)cc2)cc1Nc1nccc(-c2cccnc2)n1` [Imatinib, reference compound] yielded a remaining activity at 10 µM (EGFR(L861Q)) of 100%.
